# Values of other authors, collected in US20040053391A1, “Renal cell carcinoma-antigen G250-derived peptides that elicit both CD4+ and CD8+ T-cell responses” (Katholieke Universiteit Nijmegen, priority 2002, published 2004).
# Test system: CD8+CTL's
# Details: HLA-A2.1; Vissers et al. 1999, WO 01/98363
substance,measurement,value
"G250 amino acid sequence from 254 to 262: previously identified HLA-A2.1-restricted CTL epitope of G250, comprised within 249-268 (HLSTAFARV; UniProt Q16790 254-262, looked up, fragment)",CTL epitope character,HLA-A2.1-restricted CTL epitope that is both naturally processed and immunogenic
